Test results as given in patent US7973069B2 (PTC Therapeutics, Inc., priority 2004, dated 2011).
Values joined by “and” are separate entries in the source; they are usually repeats but may differ in a detail not shown here. Equal entries are not always repeated.

System: HCV replicon
Type: cell-based

SMILES	IC50
CCOc1ccc2c(C#N)c(-c3ccc(NS(=O)(=O)C4CC4)cc3)n(C3CCC3)c2c1 [Compound 934]	< 0.5 µM
COCn1c(-c2ccc(N3CCCS3(=O)=O)cc2)c(C#N)c2ccc(OC)cc21 [Compound 990]	0.5 to 2 µM
C=CCOC(=O)Nc1ccc(-c2c(C#N)c3ccc(OC(F)F)cc3n2CC)cc1 [Compound 1135]	< 0.5 µM
CCOc1ccc2c(C#N)c(-c3ccc(N(CC)CC)cc3)n(C3CC3)c2c1 [Compound 1310]	0.5 to 2 µM
CCOc1ccc2c(c1)c(C#N)c(-c1ccc(NC(=O)OC(C)C)cc1)n2C1CCC1 [Compound 1195]	< 0.5 µM
COc1ccc2c(C#N)c(-c3ccc(NC(=O)OCC(C)(C)C)cc3)n(C3CCC3)c2c1 [Compound 1078]	< 0.5 µM and 0.5 to 2 µM
N#Cc1c(-c2ccc(NC(=O)OCC3CCC3)cc2)n(C2CCC2)c2cc(OCCCCN3CCCC3)ccc12 [Compound 1257]	< 0.5 µM
CCCn1c(-c2ccc(NS(=O)(=O)CCC)cc2)c(C#N)c2cc(OC)ccc21 [Compound 1041]	0.5 to 2 µM and < 0.5 µM
CCCOc1ccc2c(C#N)c(-c3ccc(NC(=O)NC4CCC4)cc3)n(C(C)C)c2c1 [Compound 1326]	0.5 to 2 µM
N#Cc1c(-c2ccc(NC(=O)OC3CCCC3)cc2)n(C2CCC2)c2cc(OCc3cccnc3)ccc12 [Compound 1219]	< 0.5 µM
CCOc1ccc2c(C#N)c(-c3ccc(NC(=O)OCCF)cc3)n(C3CCC3)c2c1 [Compound 974]	< 0.5 µM
CCCCS(=O)(=O)Nc1ccc(-c2c(C#N)c3ccc(OC(F)(F)F)cc3n2CC)cc1 [Compound 885]	< 0.5 µM
CCCS(=O)(=O)Nc1ccc(-c2c(C#N)c3ccc(OCC)cc3n2C2CCC2)cc1 [Compound 933]	0.5 to 2 µM
CCn1c(-c2cccc(N3CCNC3=O)c2)c(C#N)c2ccc(OCCCN3CCOCC3)cc21 [Compound 1068]	0.5 to 2 µM
CCOc1ccc2c(c1)c(C#N)c(-c1ccc(NC(=O)OC(C)COC)cc1)n2C1CCC1 (stereo not drawn) [Compound 1299]	0.5 to 2 µM
CCOc1ccc2c(C#N)c(-c3ccc(NC(=O)OC(C)(C)C)cc3)n(C3CCC3)c2c1 [Compound 1072]	< 0.5 µM
CC#CCOC(=O)Nc1ccc(-c2c(C#N)c3ccc(OCC)cc3n2C2CCC2)cc1 [Compound 976]	0.5 to 2 µM
CCCOC(=O)N(CC)c1ccc(-c2c(C#N)c3ccc(OCC)cc3n2C2CCC2)cc1 [Compound 1252]	0.5 to 2 µM
CCS(=O)(=O)Nc1ccc(-c2c(C#N)c3ccc(OC)cc3n2COC)cc1 [Compound 988]	0.5 to 2 µM
N#Cc1c(-c2ccc(NC(=O)NC3CCCC3)cc2)n(C2CCC2)c2cc(OC(F)F)ccc12 [Compound 1190]	0.5 to 2 µM
CCn1c(-c2ccc(NS(=O)(=O)C3CC3)cc2)c(C#N)c2ccc(OC(F)F)cc21 [Compound 929]	< 0.5 µM
CCCCn1c(-c2cccc(NC(=O)NCCc3ccccc3)c2)c(C#N)c2ccc(OCC)cc21 [Compound 1024]	< 0.5 µM
CCCNC(=O)Nc1ccc(-c2c(C#N)c3ccc(OCc4cccnc4)cc3n2CC)cc1 [Compound 1185]	< 0.5 µM
COc1ccc2c(c1)c(C#N)c(-c1ccc(NC(=O)OC(C)C)cc1)n2C1CCC1 [Compound 1232]	< 0.5 µM and 0.5 to 2 µM
CCOc1ccc2c(C#N)c(-c3ccc(NC(=O)NC4CC4)cc3)n(C3CCC3)c2c1 [Compound 1191]	0.5 to 2 µM
CCn1c(-c2ccc(NC(=O)C(C)(C)C)cc2)c(C#N)c2ccc(OC(F)(F)F)cc21 [Compound 915]	0.5 to 2 µM

SMILES	IC50
CCn1c(-c2ccc(NS(=O)(=O)C3CC3)cc2)c(C#N)c2ccc(OCCCN3CCOCC3)cc21 [Compound 1117]	0.5 to 2 µM
CCOC(=O)Nc1ccc(-c2c(C#N)c3ccc(OC)cc3n2C2CCC2)cc1 [Compound 1073]	0.5 to 2 µM
CCCOC(=O)Nc1ccc(-c2c(C#N)c3ccc(OCC)cc3n2C2CCCC2)cc1 [Compound 1128]	< 0.5 µM
CCOc1ccc2c(C#N)c(-c3ccc(NC(=O)OC4CCCC4)cc3)n(C3CCCC3)c2c1 [Compound 1211]	< 0.5 µM
CCCCn1c(-c2cccc(NC(=O)OCCC)c2)c(C#N)c2ccc(OCC)cc21 [Compound 1021]	< 0.5 µM
CCCOC(=O)Nc1ccc(-c2c(C#N)c3ccc(OC)cc3n2CC2CC2)cc1 [Compound 985]	0.5 to 2 µM
CC(C)OC(=O)Nc1ccc(-c2c(C#N)c3ccc(Oc4ncccn4)cc3n2C2CCC2)cc1 [Compound 2151]	< 0.5 µM
CCOC(=O)Nc1ccc(-c2c(C#N)c3ccc(OC)cc3n2CC2CC2)cc1 [Compound 984]	0.5 to 2 µM
CC(C)NC(=O)Nc1ccc(-c2c(C#N)c3ccc(OCCn4ccnc4)cc3n2C2CCC2)cc1 [Compound 1322]	< 0.5 µM
COc1ccc2c(C#N)c(-c3ccc(NC(=O)OCc4ccccc4)cc3)n(C3CCC3)c2c1 [Compound 1079]	< 0.5 µM
CC(C)OC(=O)Nc1ccc(-c2c(C#N)c3ccc(OCCCN4CCN(C)CC4)cc3n2C2CCC2)cc1 [Compound 1261]	< 0.5 µM
CCn1c(-c2ccc(N(C)S(C)(=O)=O)cc2)c(C#N)c2ccc(C(F)(F)F)cc21 [Compound 1002]	0.5 to 2 µM
CCCS(=O)(=O)Nc1ccc(-c2c(C#N)c3ccc(OC(F)F)cc3n2C2CCCC2)cc1 [Compound 1188]	0.5 to 2 µM
CCCOC(=O)Nc1ccc(-c2c(C#N)c3cc(OCc4ccccc4)ccc3n2CC)cc1 [Compound 926]	0.5 to 2 µM
C=CCNC(=O)Nc1ccc(-c2c(C#N)c3ccc(OC(F)F)cc3n2CC2CC2)cc1 [Compound 1070]	0.5 to 2 µM
CCCn1c(-c2ccc(NC(=O)NCCc3ccccc3)cc2)c(C#N)c2ccc(OCC)cc21 [Compound 1256]	< 0.5 µM
CC(C)NC(=O)Nc1ccc(-c2c(C#N)c3ccc(-c4ccccn4)cc3n2C2CCC2)cc1 [Compound 2440]	< 0.5 µM
CC(C)NC(=O)Nc1ccc(-c2c(C#N)c3ccc(OCCCN4CCCC4)cc3n2C2CCC2)cc1 [Compound 1309]	< 0.5 µM
CC(C)NC(=O)Nc1ccc(-c2c(C#N)c3ccc(OCCN(C)C)cc3n2C2CCC2)cc1 [Compound 1319]	< 0.5 µM
CCOCCOC(=O)Nc1ccc(-c2c(C#N)c3ccc(OCC)cc3n2C2CCC2)cc1 [Compound 1250]	< 0.5 µM
CCn1c(-c2ccc(NC(=O)C3CC3)cc2)c(C#N)c2ccc(OCCN3CCCC3)cc21 [Compound 1054]	0.5 to 2 µM
CCOc1ccc2c(C#N)c(-c3cccc(NC(=O)OCC(C)C)c3)n(C3CCC3)c2c1 [Compound 1037]	0.5 to 2 µM
CCOc1ccc2c(C#N)c(-c3ccc(NC(=O)NC(C)C)cc3)n(CC3CC3)c2c1 [Compound 1120]	< 0.5 µM
CCCS(=O)(=O)Nc1ccc(-c2c(C#N)c3ccc(OCC)cc3n2CC2CCC2)cc1 [Compound 1170]	0.5 to 2 µM
CCn1c(-c2ccc(NC(=O)OC(C)C)cc2)c(C#N)c2cc3c(cc21)OCO3 [Compound 1040]	0.5 to 2 µM
CCn1c(-c2ccc(NS(=O)(=O)C(C)C)cc2)c(C#N)c2ccc(OC(F)(F)F)cc21 [Compound 884]	< 0.5 µM

SMILES	IC50
CCOc1ccc2c(C#N)c(-c3ccc(N4CCCS4(=O)=O)cc3)n(C3CCC3)c2c1 [Compound 980]	> 2 µM
CCCOC(=O)Nc1ccc(-c2c(C#N)c3ccc(OC(F)F)cc3n2CC)cc1 [Compound 1132]	0.5 to 2 µM
CC(OC(=O)Nc1ccc(-c2c(C#N)c3ccc(OCCn4ccnc4)cc3n2C2CCC2)cc1)C1CC1 (stereo not drawn) [Compound 1328]	< 0.5 µM
CCCOc1ccc2c(C#N)c(-c3ccc(NC(=O)NC(C)CC)cc3)n(C(C)C)c2c1 (stereo not drawn) [Compound 1324]	< 0.5 µM
CCN1CCN(c2ccc(-c3c(C#N)c4ccc(OC)cc4n3CC)cc2)S1(=O)=O [Compound 1110]	0.5 to 2 µM
CCC(C)OC(=O)Nc1ccc(-c2c(C#N)c3ccc(OCC4CCCO4)cc3n2C2CCC2)cc1 (stereo not drawn) [Compound 1283]	< 0.5 µM
CCCn1c(-c2ccc(NC(=O)OC(C)C)cc2)c(C#N)c2ccc(OCC)cc21 [Compound 1056]	< 0.5 µM
CCOc1ccc2c(c1)c(C#N)c(-c1ccc(NC(=O)NC(C)C)cc1)n2C1CCC1 [Compound 1224]	0.5 to 2 µM
CCn1c(-c2ccc(NS(=O)(=O)CC)cc2)c(C#N)c2ccc(OCCCN3CCOCC3)cc21 [Compound 1115]	0.5 to 2 µM
CCCOC(=O)Nc1cccc(-c2c(C#N)c3ccc(OCCCN4CCOCC4)cc3n2CC)c1 [Compound 1034]	< 0.5 µM
N#Cc1c(-c2ccc(NC(=O)OC3CCCC3)cc2)n(C2CCC2)c2cc(OC(F)F)ccc12 [Compound 1186]	0.5 to 2 µM
CCCNC(=O)Nc1ccc(-c2c(C#N)c3ccc(OCC)cc3n2CC(C)C)cc1 [Compound 1061]	0.5 to 2 µM
CCCn1c(-c2ccc(NS(=O)(=O)C3CC3)cc2)c(C#N)c2ccc(OCc3ccccc3)cc21 [Compound 924]	0.5 to 2 µM
CCOc1ccc2c(c1)c(C#N)c(-c1ccc(NC(=O)NCCc3ccccc3)cc1)n2C1CCC1 [Compound 1227]	< 0.5 µM
CCOc1ccc2c(C#N)c(-c3ccc(NC(=O)OCC(C)(C)C)cc3)n(CC3CC3)c2c1 [Compound 1152]	< 0.5 µM
CCOc1ccc2c(c1)c(C#N)c(-c1ccc(NC(=O)OC(C)CC)cc1)n2C1CCC1 (stereo not drawn) [Compound 1323]	< 0.5 µM
CCCn1c(-c2ccc(NS(=O)(=O)CC)cc2)c(C#N)c2cc(OC)ccc21 [Compound 996]	< 0.5 µM and 0.5 to 2 µM
CCCn1c(-c2ccc(NC(=O)OC)cc2)c(C#N)c2ccc(OCC)cc21 [Compound 1062]	0.5 to 2 µM
CCn1c(-c2ccc(NC(=O)OCCF)cc2)c(C#N)c2ccc(OCCF)cc21 [Compound 945]	0.5 to 2 µM
CCOc1ccc2c(c1)c(C#N)c(-c1ccc(NC(=O)OC3CCOC3)cc1)n2C1CCC1 (stereo not drawn) [Compound 1297]	0.5 to 2 µM
CC(C)NC(=O)Nc1ccc(-c2c(C#N)c3ccc(OCCN4CCOCC4)cc3n2C2CCC2)cc1 [Compound 1315]	0.5 to 2 µM
CCCCNC(=O)Nc1ccc(-c2c(C#N)c3ccc(OC(F)(F)F)cc3n2CC)cc1 [Compound 894]	0.5 to 2 µM
CCOc1ccc2c(C#N)c(-c3ccc(NC(=O)OCCOC)cc3)n(C3CCC3)c2c1 [Compound 975]	0.5 to 2 µM
CCCN(c1ccc(-c2c(C#N)c3ccc(C(F)(F)F)cc3n2CC)cc1)S(=O)(=O)CC [Compound 1007]	< 0.5 µM
CCCCn1c(-c2ccc(NC(=O)NCCc3ccccc3)cc2)c(C#N)c2ccc(OCC)cc21 [Compound 1019]	< 0.5 µM
CCOC(=O)Nc1ccc(-c2c(C#N)c3cc(OC)ccc3n2C2CCC2)cc1 [Compound 1176]	0.5 to 2 µM
